The results in this text go back to ChEMBL document CHEMBL5528002, “Identification of selective 5-LOX and FLAP inhibitors as novel anti-inflammatory agents by ligand-based virtual screening” (Eur J Med Chem, 2024).

The target in experiment [1] is T1, Polyunsaturated fatty acid 5-lipoxygenase (Homo sapiens) (UniProt P09917).
T1 sequence (whole entry): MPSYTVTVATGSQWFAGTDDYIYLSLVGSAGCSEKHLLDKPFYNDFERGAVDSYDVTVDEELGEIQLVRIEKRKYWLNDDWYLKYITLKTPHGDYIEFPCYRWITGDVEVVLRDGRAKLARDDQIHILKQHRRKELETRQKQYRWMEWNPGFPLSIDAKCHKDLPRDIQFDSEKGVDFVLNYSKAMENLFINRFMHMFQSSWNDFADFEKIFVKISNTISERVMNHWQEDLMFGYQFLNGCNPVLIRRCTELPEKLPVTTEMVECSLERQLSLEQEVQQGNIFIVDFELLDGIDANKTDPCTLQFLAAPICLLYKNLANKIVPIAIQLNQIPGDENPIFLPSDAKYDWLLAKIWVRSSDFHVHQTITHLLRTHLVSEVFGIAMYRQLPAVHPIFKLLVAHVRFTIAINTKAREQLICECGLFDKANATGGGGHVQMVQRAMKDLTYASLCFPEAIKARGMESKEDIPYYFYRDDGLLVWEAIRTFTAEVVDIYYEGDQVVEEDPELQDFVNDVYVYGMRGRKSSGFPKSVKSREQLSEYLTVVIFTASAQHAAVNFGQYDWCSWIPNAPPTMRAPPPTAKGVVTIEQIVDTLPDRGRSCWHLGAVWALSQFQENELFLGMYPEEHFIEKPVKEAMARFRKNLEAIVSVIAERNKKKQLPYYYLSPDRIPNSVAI
Kind of experiment: Inhibition of 5-LOX in human Neutrophil assessed as enzyme remaining activity at 10 uM using arachidonic acid as substrate preincubated with compound for 15 mins followed by substrate and A23187 addition measured after 10 mins by RP-HPLC analysis relative to control. The note with it: time 25.0 min. Format: cell-based.

Experiment [2] addresses T2, Prostaglandin E synthase (Homo sapiens) (UniProt O14684).
T2 sequence (whole entry): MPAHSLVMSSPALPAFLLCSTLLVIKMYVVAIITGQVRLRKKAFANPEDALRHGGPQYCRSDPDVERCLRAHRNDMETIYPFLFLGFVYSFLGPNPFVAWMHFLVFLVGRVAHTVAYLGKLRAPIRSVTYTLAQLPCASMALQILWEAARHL
The experiment is described as follows: Inhibition of human mPGES-1 at 10 uM relative to control.

For experiment [3], the system named is Neutrophil. The experiment is described as follows: Inhibition of ROS production in PMA-induced human Neutrophil cells at 10 uM incubated for 10 mins by DCFH-DA dye based fluorometric assay. In kind it is functional, cell-based.
For experiment [4], the target named is T3, Bifunctional epoxide hydrolase 2 (Homo sapiens) (UniProt P34913).
T3 sequence (whole entry): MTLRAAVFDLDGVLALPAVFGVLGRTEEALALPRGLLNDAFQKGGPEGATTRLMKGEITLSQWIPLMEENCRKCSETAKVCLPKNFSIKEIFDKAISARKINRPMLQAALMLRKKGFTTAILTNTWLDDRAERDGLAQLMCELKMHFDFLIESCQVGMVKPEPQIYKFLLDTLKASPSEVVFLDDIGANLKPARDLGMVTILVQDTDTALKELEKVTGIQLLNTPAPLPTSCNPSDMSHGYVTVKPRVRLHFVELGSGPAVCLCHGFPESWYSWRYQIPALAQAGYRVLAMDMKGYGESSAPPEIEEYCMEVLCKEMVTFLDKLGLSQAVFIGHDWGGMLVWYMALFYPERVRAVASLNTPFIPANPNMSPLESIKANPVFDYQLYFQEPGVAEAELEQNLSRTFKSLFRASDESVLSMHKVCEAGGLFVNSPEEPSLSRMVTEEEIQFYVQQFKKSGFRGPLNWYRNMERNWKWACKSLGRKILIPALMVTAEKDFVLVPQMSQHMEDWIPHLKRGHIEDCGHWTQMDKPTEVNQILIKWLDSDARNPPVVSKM
The experiment is described as follows: Inhibition of human sEH assessed as enzyme remaining activity at 10 uM relative to control.

The nature of experiment [5]: Antioxidant activity assessed as DPPH radical scavenging activity at 10 uM incubated for 30 min by DPPH assay. In kind it is functional.
Experiment [6] deals with Neutrophil. The experiment is described as follows: Inhibition of ROS production in PMA-induced human Neutrophil cells at 1 uM incubated for 10 mins by DCFH-DA dye based fluorometric assay. Format: functional, cell-based.
In experiment [7] the target is T3, Bifunctional epoxide hydrolase 2 (Homo sapiens). Kind of experiment: Inhibition of human sEH at 10 uM relative to control.
Experiment [8] has as its target T1, Polyunsaturated fatty acid 5-lipoxygenase (Homo sapiens). Kind of experiment: Inhibition of 5-LOX in human Neutrophil assessed as enzyme remaining activity at 10 uM preincubated with compound for 15 mins followed by A23187 addition measured after 10 mins by RP-HPLC analysis relative to control. In kind it is cell-based. The conditions noted are these: time 25.0 min.

Experiment [9] shares this target. The experiment is described as follows: Inhibition of 5-LOX in human Neutrophil at 10 uM preincubated with compound for 15 mins followed by A23187 addition measured after 10 mins by RP-HPLC analysis relative to control. The note with it: time 25.0 min. In kind it is cell-based.
In experiment [10] the target is T2, Prostaglandin E synthase (Homo sapiens). Kind of experiment: Inhibition of human mPGES-1 assessed as enzyme remaining activity at 10 uM relative to control.
Experiment [11] in a line: Antioxidant activity assessed as DPPH radical scavenging activity at 1 uM incubated for 30 min by DPPH assay. In kind it is functional.
In experiment [12] the target is T1, Polyunsaturated fatty acid 5-lipoxygenase (Homo sapiens). Kind of experiment: Inhibition of human recombinant 5-LOX expressed in Escherichia coli BL21(DE3) assessed as enzyme remaining activity at 10 uM using arachidonic acid as substrate preincubated with compound for 15 mins followed by substrate and CaCl2 addition measured after 10 mins by RP-HPLC analysis relative to control. The note with it: time 25.0 min.

Experiment [13] has the same target. The experiment is described as follows: Inhibition of 5-LOX in human Neutrophil at 10 uM using arachidonic acid as substrate preincubated with compound for 15 mins followed by substrate and A23187 addition measured after 10 mins by RP-HPLC analysis relative to control. Format: cell-based. The conditions noted are these: time 25.0 min.

Calls of active or inactive are those of the source. No cut-off for these calls is given here.

Consider `CC(=O)NC(CCc1ccc(Cl)c(Cl)c1)c1cccc(O)c(=O)c1` (stereo not given), for which the Activity was 49.5% in experiment [1]; 66.2% in experiment [4]; 34.5% in experiment [8]; 102% in experiment [10]; 5.3% in experiment [12]. The inhibition result (in experiment [2]; in the experiment on Neutrophil [3]; in the experiment on Neutrophil [6]) was “inactive” in each case. The result in [5] and in experiment [11] was inactive. Also, the inhibition in experiment [7] was greater than 35%; in experiment [9], greater than 50%; in experiment [13] it was greater than 50%.

With `Nc1nc(N)c2cc([S+]([O-])c3ccc4ccccc4c3)ccc2n1` (stereo not given), the Activity in [1] was found to be 82.1%; in [4], 93.9%; in [8], 62%; in experiment [10] it was 88.3%; in [12], 94.6%. Further, the inhibition entry in experiment [2] and in experiment [13] was “inactive” in each case. Further, the inhibition in [7] is greater than 35%; in experiment [9], 37%.

For the compound `N=C1OC(c2c[nH]c3ccc(OCc4ccccc4)cc23)C(O)=C1O` (stereo not given), the Activity in experiment [1] came out at 92.3%; in experiment [4], 86.7%; in [8] it was 56.1%; in experiment [10] it was 56.8%; in [12], 95%. Besides, the inhibition in [2] is less than 40%; in experiment [7], greater than 35%; in experiment [9] it was 37%. In addition, the inhibition entry in experiment [13] is “inactive”.

For the compound `O=C1Nc2ccccc2/C1=N\CCc1c[nH]c2ccccc12`, the Activity was determined as 42.8% in experiment [1]; 92.8% in experiment [4]; 73.5% in experiment [8]; 30.4% in experiment [10]; 69.1% in experiment [12]. For the same compound, the inhibition in experiment [2] was greater than 50%; in experiment [7], greater than 35%. Moreover, the inhibition entry in [9] was “inactive”. Besides, the inhibition entry in experiment [13] was “Active”.

With `O=C1NC(=O)C(CCC(=O)c2ccc3ccccc3c2)C(=O)N1`, the Activity in [1] was determined as 94.8%; in [4], 83.3%; in experiment [8], 63.3%; in [10] it was 77.5%; in experiment [12], 86.1%. Further, the inhibition entry in [2] and in [13] was “inactive” throughout. In addition, the results for the inhibition in experiment [7] and in experiment [9] were greater than 35% and 37%, respectively.

As to `Oc1nc(Cc2ccc3ccccc3n2)cc(-c2ccccc2)n1`, the Activity came to 111% in experiment [1]; 91.6% in [4]; 53.9% in experiment [8]; 55.8% in [10]; 68.1% in experiment [12]. Also, the inhibition result in [2] and in experiment [13] was “inactive” throughout. Further, the inhibition was greater than 35% in experiment [7] and 37% in experiment [9].

Consider `O=C(O)c1ccccc1C(=O)OC1CCc2ccccc2C1` (stereo not given), for which the Activity in experiment [1] came out at 103%; in [4], 87.4%; in [8], 105%; in [10] it was 86.5%; in experiment [12], 110%. Moreover, the inhibition entry in experiment [2] and in experiment [9] was “inactive” in each case. For the same compound, in experiment [7], the inhibition is greater than 35%.

With `Cn1c(=O)c2nc(CCCc3nc4ccccc4[nH]3)[nH]c2n(C)c1=O`, the Activity in experiment [1] came out at 98.3%; in experiment [4] it was 92.7%; in [8], 113%; in experiment [10], 90.9%; in [12] it was 98.5%. For the same compound, the inhibition result in experiment [2] and in experiment [9] was “inactive” throughout. The compound also displayed an inhibition in [7] greater than 35%.

`CC1CCc2c(c(CC3CC(=O)NC(=O)C3)nn2-c2ccccc2)C1` (stereo not given): the Activity was 101% in experiment [1]; 86.2% in experiment [4]; 95.6% in experiment [8]; 89.6% in experiment [10]; 91.7% in [12]. For the same compound, the inhibition result in [2] and in experiment [9] was “inactive” throughout. Also, in [7], the inhibition was greater than 35%.

Take `Cc1ccc(Nc2nnc(-c3ccc4c(c3)OCO4)o2)c(C)c1`: the Activity in experiment [1] is 69.8%; in experiment [4] it was 90.6%; in experiment [8], 106%; in experiment [10], 57.9%; in [12] it was 14%. Moreover, the figures for the inhibition in [2] and in experiment [7] were less than 40% and greater than 35%, respectively. Moreover, the inhibition result in experiment [9] was “inactive”.

With `NS(=O)(=O)c1ccc(NCc2cnc3ccccc3c2)cc1`, the Activity in [1] came out at 95.3%; in experiment [4], 112%; in experiment [8], 90.6%; in experiment [10], 86.3%; in experiment [12], 96.5%. Moreover, the inhibition result in experiment [2] and in experiment [9] was “inactive” in each case. In experiment [7], this compound showed an inhibition greater than 35%.

For `O=C1Nc2ccccc2/C1=N/NS(=O)(=O)c1ccc(C(=O)O)cc1`, the Activity in [1] is 88.2%; in [4], 111%; in experiment [8] it was 93.1%; in experiment [10], 94.2%; in experiment [12], 105%. The inhibition entry in [2] and in experiment [9] was “inactive” throughout. Further, in experiment [7], the inhibition was greater than 35%.

With `O=C1CCC(CCc2nc3ccccc3[nH]2)(c2ccccc2)C(=O)N1` (stereo not given), the Activity in [1] worked out at 110%; in [4] it was 98.7%; in [8], 102%; in experiment [10] it was 92.7%; in experiment [12], 106%. The inhibition result in [2] and in [9] was “inactive” each time. The inhibition in experiment [7] is greater than 35%.

Take `CC(=O)c1cccc2cc(CC(=O)c3ccccc3)c(=O)oc12`: the Activity in experiment [1] came to 94.9%; in experiment [4], 79.7%; in [8] it was 81.6%; in [10], 59%; in experiment [12] it was 105%. Also, the inhibition in experiment [2] is less than 40%; in experiment [7] it was greater than 35%. Besides, the inhibition entry in [9] was “inactive”.

For the compound `O=C1c2ccccc2C(=O)N1CCc1nc(-c2ccccc2)c[nH]1`, the Activity in [1] was found to be 99.2%; in experiment [4], 41.5%; in [8] it was 100%; in [10], 92.5%; in [12] it was 90.4%. Also, the inhibition result in experiment [2] and in experiment [9] was “inactive” each time. Also, the inhibition in [7] is 58%.
